Assay results taken from ChEMBL document CHEMBL1141566, “Synthesis and antitumor evaluation of bis aza-anthracene-9,10-diones and bis aza-anthrapyrazole-6-ones” (2008).

How the values were obtained:
Type in all cases: functional
HT-29 [1] = assay: Effect on proapoptotic CARD6 gene expression in human HT29 cells after 12 hrs
HT-29 [2] = assay: Cytotoxicity against human HT29 cells after 72 hrs; conditions: HT-29, 72 h
HT-29 [3] = assay: Effect on apoptosis in human HT29 PI-/AnnV+ cells after 12 hrs by biparametric flow cytometric analysis; conditions: HT-29, 12 h, read-out: LC50 (the source's name)
HT-29 [4] = assay: Effect on apoptotic BCL10 gene expression in human HT29 cells after 12 hrs
HT-29 [5] = assay: Effect on proapoptotic CARD8 gene expression in human HT29 cells after 6 hrs
HT-29 [6] = assay: Effect on apoptotic MCL1 gene expression in human HT29 cells after 6 hrs
HT-29 [7] = assay: Effect on proapoptotic BCL2L11 gene expression in human HT29 cells after 6 hrs
HT-29 [8] = assay: Effect on apoptosis in human HT29 PI-/AnnV+ cells after 24 hrs by biparametric flow cytometric analysis; conditions: HT-29, 24 h, read-out: LC50 (the source's name)
HT-29 [9] = assay: Effect on apoptotic BIRC8 gene expression in human HT29 cells after 12 hrs
HT-29 [10] = assay: Effect on apoptosis in human HT29 PI+/AnnV+ cells after 24 hrs by biparametric flow cytometric analysis; conditions: HT-29, 24 h, read-out: LC50 (the source's name)
HT-29 [11] = assay: Effect on proapoptotic CASP7 gene expression in human HT29 cells after 6 hrs
HT-29 [12] = assay: Effect on apoptotic AKT1 gene expression in human HT29 cells after 12 hrs
HT-29 [13] = assay: Effect on proapoptotic BFAR gene expression in human HT29 cells after 6 hrs
HT-29 [14] = assay: Effect on apoptotic BCL2L10 gene expression in human HT29 cells after 6 hrs
HT-29 [15] = assay: Effect on proapoptotic BAX gene expression in human HT29 cells after 12 hrs
HT-29 [16] = assay: Effect on apoptotic MCL1 gene expression in human HT29 cells after 12 hrs
HT-29 [17] = assay: Effect on proapoptotic CIDEB gene expression in human HT29 cells after 12 hrs
HT-29 [18] = assay: Effect on apoptotic GADD45A gene expression in human HT29 cells after 6 hrs
HT-29 [19] = assay: Effect on proapoptotic TNFRSF10A gene expression in human HT29 cells after 6 hrs
HT-29 [20] = assay: Effect on apoptotic BAG4 gene expression in human HT29 cells after 6 hrs
HT-29 [21] = assay: Effect on proapoptotic LTBR gene expression in human HT29 cells after 12 hrs
HT-29 [22] = assay: Effect on apoptosis in human HT29 PI-/AnnV- cells after 6 hrs by biparametric flow cytometric analysis; conditions: HT-29, 6 h, read-out: LC50 (the source's name)
HT-29 [23] = assay: Effect on proapoptotic NOD1 gene expression in human HT29 cells after 6 hrs
HT-29 [24] = assay: Effect on proapoptotic BAX gene expression in human HT29 cells after 6 hrs
HT-29 [25] = assay: Effect on proapoptotic CIDEB gene expression in human HT29 cells after 6 hrs
HT-29 [26] = assay: Effect on apoptosis in human HT29 PI+/AnnV+ cells after 12 hrs by biparametric flow cytometric analysis; conditions: HT-29, 12 h, read-out: LC50 (the source's name)
HT-29 [27] = assay: Effect on apoptosis in human HT29 PI-/AnnV+ cells after 6 hrs by biparametric flow cytometric analysis; conditions: HT-29, 6 h, read-out: LC50 (the source's name)
HT-29 [28] = assay: Effect on apoptotic IGF1R gene expression in human HT29 cells after 6 hrs
HT-29 [29] = assay: Effect on proapoptotic BNIP1 gene expression in human HT29 cells after 6 hrs
HT-29 [30] = assay: Effect on proapoptotic BCLAF1 gene expression in human HT29 cells after 12 hrs
HT-29 [31] = assay: Effect on apoptosis in human HT29 PI-/AnnV- cells after 12 hrs by biparametric flow cytometric analysis; conditions: HT-29, 12 h, read-out: LC50 (the source's name)
HT-29 [32] = assay: Effect on apoptotic NOL3 gene expression in human HT29 cells after 12 hrs
HT-29 [33] = assay: Effect on proapoptotic TNFRSF10A gene expression in human HT29 cells after 12 hrs
HT-29 [34] = assay: Effect on proapoptotic BNIP3L gene expression in human HT29 cells after 6 hrs
HT-29 [35] = assay: Effect on apoptotic BIRC3 gene expression in human HT29 cells after 12 hrs
HT-29 [36] = assay: Effect on proapoptotic CASP9 gene expression in human HT29 cells after 6 hrs
HT-29 [37] = assay: Effect on proapoptotic BFAR gene expression in human HT29 cells after 12 hrs
HT-29 [38] = assay: Effect on proapoptotic CARD6 gene expression in human HT29 cells after 6 hrs
HT-29 [39] = assay: Effect on apoptotic BRAF gene expression in human HT29 cells after 12 hrs
HT-29 [40] = assay: Effect on apoptotic BAG1 gene expression in human HT29 cells after 6 hrs
HT-29 [41] = assay: Effect on apoptotic BAG4 gene expression in human HT29 cells after 12 hrs
HT-29 [42] = assay: Effect on proapoptotic TNFRSF10B gene expression in human HT29 cells after 12 hrs
HT-29 [43] = assay: Effect on proapoptotic BAK1 gene expression in human HT29 cells after 6 hrs
HT-29 [44] = assay: Effect on apoptosis in human HT29 PI+/AnnV- cells after 6 hrs by biparametric flow cytometric analysis; conditions: HT-29, 6 h, read-out: LC50 (the source's name)
HT-29 [45] = assay: Effect on apoptosis in human HT29 PI+/AnnV- cells after 12 hrs by biparametric flow cytometric analysis; conditions: HT-29, 12 h, read-out: LC50 (the source's name)
HT-29 [46] = assay: Effect on apoptotic BIRC8 gene expression in human HT29 cells after 6 hrs
HT-29 [47] = assay: Effect on proapoptotic BNIP3L gene expression in human HT29 cells after 12 hrs
HT-29 [48] = assay: Effect on apoptosis in human HT29 PI-/AnnV- cells after 24 hrs by biparametric flow cytometric analysis; conditions: HT-29, 24 h, read-out: LC50 (the source's name)
HT-29 [49] = assay: Effect on proapoptotic BCL2 gene expression in human HT29 cells after 6 hrs
HT-29 [50] = assay: Effect on proapoptotic BAK1 gene expression in human HT29 cells after 12 hrs
HT-29 [51] = assay: Effect on apoptosis in human HT29 PI+/AnnV+ cells after 6 hrs by biparametric flow cytometric analysis; conditions: HT-29, 6 h, read-out: LC50 (the source's name)
HT-29 [52] = assay: Effect on apoptotic CFLAR gene expression in human HT29 cells after 6 hrs
HT-29 [53] = assay: Effect on proapoptotic LTBR gene expression in human HT29 cells after 6 hrs
HT-29 [54] = assay: Effect on apoptotic IGF1R gene expression in human HT29 cells after 12 hrs
HT-29 [55] = assay: Effect on apoptotic BIRC6 gene expression in human HT29 cells after 6 hrs
HT-29 [56] = assay: Effect on apoptosis in human HT29 PI+/AnnV- cells after 24 hrs by biparametric flow cytometric analysis; conditions: HT-29, 24 h, read-out: LC50 (the source's name)
HT-29 [57] = assay: Effect on apoptotic NOL3 gene expression in human HT29 cells after 6 hrs
HT-29 [58] = assay: Effect on apoptotic CFLAR gene expression in human HT29 cells after 12 hrs
HT-29 [59] = assay: Effect on apoptotic BCL2L1 gene expression in human HT29 cells after 6 hrs

CN(C)CCn1nc2c3c(c(NCCCN(C)CCCNc4ccc5c6c(nn5CCN(C)C)-c5cnccc5C(=O)c46)ccc31)C(=O)c1ccncc1-2
Fold change (HT-29 [1]): -6.7 | GI50 (HT-29 [2]): 0.00036 µM | LC50 (concentration killing 50% of cells) (HT-29 [2]): 9.8 µM | TGI (HT-29 [2]): 1.3 µM | CC50 (HT-29 [3]): 32.4 µM | Fold change (HT-29 [4]): -2.2 | Fold change (HT-29 [5]): 4 | Fold change (HT-29 [6]): -5 | Fold change (HT-29 [7]): 7.7 | CC50 (HT-29 [8]): 62.3 µM | Fold change (HT-29 [9]): -33.3 | CC50 (HT-29 [10]): 22.2 µM | Fold change (HT-29 [11]): 5.6 | Fold change (HT-29 [12]): -6.3 | Fold change (HT-29 [13]): -7 | Fold change (HT-29 [14]): 2.2 | Fold change (HT-29 [15]): 1.3 | Fold change (HT-29 [16]): -2.7 | Fold change (HT-29 [17]): 2.4 | Fold change (HT-29 [18]): 8.8 | Fold change (HT-29 [19]): -2.5 | Fold change (HT-29 [20]): -7 | Fold change (HT-29 [21]): -4.3 | CC50 (HT-29 [22]): 72.5 µM | Fold change (HT-29 [23]): 4.2 | Fold change (HT-29 [24]): 4.1 | Fold change (HT-29 [25]): 8.3 | CC50 (HT-29 [26]): 3.4 µM | CC50 (HT-29 [27]): 22.3 µM | Fold change (HT-29 [28]): -38.5 | Fold change (HT-29 [29]): 3 | Fold change (HT-29 [30]): 136 | CC50 (HT-29 [31]): 60 µM | Fold change (HT-29 [32]): -3.8 | Fold change (HT-29 [33]): -5.9 | Fold change (HT-29 [34]): 7.4 | Fold change (HT-29 [35]): -6.3 | Fold change (HT-29 [36]): 2.2 | Fold change (HT-29 [37]): -2.5 | Fold change (HT-29 [38]): -2.7 | Fold change (HT-29 [39]): -9.1 | Fold change (HT-29 [40]): -2.5 | Fold change (HT-29 [41]): -3.3 | Fold change (HT-29 [42]): -4.3 | Fold change (HT-29 [43]): 4.5 | CC50 (HT-29 [44]): 3.4 µM | CC50 (HT-29 [45]): 4.2 µM | Fold change (HT-29 [46]): -5.6 | Fold change (HT-29 [47]): 3.6 | CC50 (HT-29 [48]): 8.3 µM | Fold change (HT-29 [49]): -2.8 | Fold change (HT-29 [50]): 4.1 | CC50 (HT-29 [51]): 1.8 µM | Fold change (HT-29 [52]): -2.2 | Fold change (HT-29 [53]): -5.3 | Fold change (HT-29 [54]): -4 | Fold change (HT-29 [55]): -2.6 | CC50 (HT-29 [56]): 7.2 µM | Fold change (HT-29 [57]): -2.5 | Fold change (HT-29 [58]): -3.3 | Fold change (HT-29 [59]): 1.2
